Each block holds one compound with its values, some of them ahead of it.
What was measured:
AKSP CRC tumoroid line = test: 3D CRC tumoroid viability, AKSP model; type: cell-based, mice; conditions: at 5.0 μM, viability after 72 hours
Method: To model different stages of colorectal cancer (CRC), intestinal organoids were derived from genetically engineered mice with the following genotypes Apc^flx/flx (A) and Apc^flx/flx Kra^LSL-G12D Smad4^flx/flx (AKS) and transformed ex vivo by addition of 100 nM 4-OHT for 24 hours. Once the organoids acquired a spheroid morphology characteristic of CRC Tumoroids, trp53 was knocked out in AKS tumoroids using CRISPR-CAS9 technology to generate the AKSP line. CRC tumoroid lines as well as wild type intestinal organoids were seeded onto Matrigel in 96 well plates in triplicates 16 hours before being treated with the indicated compounds at a final concentration of 0.5 μM. 72 hours later, cell viability was assessed using Titerglo® assay. Results of 3D CRC organoid line data for pyrazolo- and pyrrolopyrimidine compounds at 0.5 μm were obtained (FIGS. 25A-G). […] In the AKSP model, at 5.0 μM, the top ten compounds were: APS-8-35-3, APS-8-35-4, APS-6-87, APS-9-3, AD80, APS-8-85-2, APS-8-51-3, APS-9-2, and APS-8-56-4.

RET (WT and M918T) = test: NanoBRET cell based target engagement assay; conditions: RET-Nluc in HEK 293T cells; for cellular IC50 against RET, ranking in words: pyrazolo- and pyrrolopyrimidine series
Method: Assays were completed in duplicate. […] FIG. 8D is a graph of the cell-based target engagement for the indicated compounds against wild-type and M918T RET. IC50 values were determined based on 8-point titration curves of free ligand. Competition assays were completed in technical triplicate against full-length human RET-Nluc expressed in 293T cells, complexed with an active-site fluorescent tracer.
In this assay, a bioluminescence resonance energy transfer (BRET) signal is generated between nanoLuciferase tagged RET (expressed in HEK 293T cells) and an active-site based fluorescent tracer. […] Using this assay, in vivo binding was determined for a series of compounds against mutant (M918T) and wild-type RET (FIG. 8D).

ptc>dRet^M955T flies = test: Fly rescue assay (Drosophila MTC model ptc>dRet^M955T); type: in vivo; conditions: compound in fly food; for rescue (percent viability of adult flies, adults/pupae×100): 13 d at 25° C., baseline viability 0%
Method: Kinase-mutated fly stocks were obtained from Bloomington Drosophila Stock Center (BDSC; Bloomington, IN). The active mutant form of Drosophila Ret (dRet^955T) carries an M955T mutation corresponding to the M918T mutation commonly reported for multiple endocrine neoplasia (MEN) type 2B patients12,14,16,34. The ptc-gal4, UAS-GFP;UAS-dRet^M955T/SM5tub-gal80-TM6B transgenic flies were prepared according to standard protocols and crossed with non-transgenic w-flies (BDSC) to generate ptc-gal4, UAS-GFP; UAS-dRet^M955T(ptc>dRet^M955T) flies for chemical screening.
All drugs were synthesized in-house. All compounds were dissolved in DMSO (Sigma-Aldrich; St. Louis, MO) and mixed with semi-defined fly medium (BDSC) to make drug food (0.1% final DMSO concentration). For drug screening, ptc>dRet^M955T embryos were raised until adulthood on drug food for 13 d at 25° C. The number of empty pupal cases (i.e., adults) ? that of total pupal cases (P) to determine % viability. Fly randomization was used throughout the assays.
In this model, compounds are assessed based on their ability to suppress oncogenic Ret^M955T-induced tumors, which can be quantified as ‘rescue’ from lethality. […] The baseline viability of ptc>Ret^1955T flies was calibrated to zero, which creates a high bar for rescue but also reduces false-positive hits. Hundreds of flies are tested per condition (typical n values are […] administered through fly food.

[1] = target: T1, wild-type RET kinase domain (Homo sapiens, UniProt P07949); test: Wild-type RET Kd, bead based competition assay (KINOMEscan, DiscoverX); type: binding; conditions: recombinant human wild-type RET kinase domain, average of two replicates; read-out: Kd towards wild-type RET
T1 construct: determined against recombinant-human, wild-type RET kinase domain; phage display fusion (kinase expressed on phage); purchased DiscoverX (Fremont, CA); host or cells: phage
T1 sequence (P07949 724-1016 limits assumed): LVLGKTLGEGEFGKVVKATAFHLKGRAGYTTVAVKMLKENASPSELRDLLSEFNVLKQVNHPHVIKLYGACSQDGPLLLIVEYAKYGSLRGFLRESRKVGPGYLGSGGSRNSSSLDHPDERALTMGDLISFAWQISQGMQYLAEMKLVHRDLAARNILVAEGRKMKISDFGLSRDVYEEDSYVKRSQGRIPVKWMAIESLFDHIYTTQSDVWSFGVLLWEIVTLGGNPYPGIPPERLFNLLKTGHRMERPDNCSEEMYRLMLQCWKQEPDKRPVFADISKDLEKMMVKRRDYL
Method: Wild-type RET Kd values were determined by DiscoverX (Fremont, CA) using a bead based competition assay (KINOMEscan). In brief, kinases are expressed on phage and immobilized on beads via active site-directed ligands. Test compounds are premixed with kinases and assayed for the ability to compete for immobilized ligands. Binding constants are calculated with a standard dose-response curve and the Hill equation, with Hill slope set to −1. […] Kd values are the average of two experimental replicates.
To assess if the differences in activity between R^F- and R^H-analogs were related to alterations in target engagement, representative analogs for binding on wild-type RET were compared. For this KD values of compounds 40 (para-C2F5) and 50 (para-C2H5) were determined against recombinant-human, wild-type RET kinase domain.

[2] = system: HCC tumor organoids, SR (sorafenib resistant); test: 3D HCC tumor organoid viability, SR model; type: cell-based; conditions: 5.0 μM, viability three days post drug administration
Method: (§1) For assays in HCC tumor organoids, 96 well plates were first coated with a 50:50 solution of basal media:Matrigel ([…]), which polymerized for 15 minutes at 37° C. Tumor organoids were taken out of Matrigel, broken, and washed. Tumor organoids were seeded at 1,000 cells per well and were treated the following day with single doses of drugs in technical triplicate. Final DMSO concentrations were kept below 0.5%. Cell viability was measured three days post drug administration with either luminescence from CellTiter-Glo or absorbance at 560 and 590 nm from resazurin. Viability data was analyzed by normalizing individual drug-treated well values to DMSO-treated wells (BC=B-Catenin; SR=sorafenib resistant). Results of 3D HCC cell line data for pyrazolo- and pyrrolopyrimidine compounds at 0.5 μm (FIGS. 22A-F), 0.05 μm (FIGS. 23A-F), and 5.0 μm (FIGS. 24A-F) were obtained. […] In the BC model, at 5.0 μM, the top ten compounds were: APS-8-100-4, APS-8-52-3, APS-8-51-4, APS-7-25-2, APS-8-100-3, APS-8-51-3, APS-8-50-4, APS-8-52-4, and APS-7-38. In the SR model, at 5.0 μM, the top ten compounds were: APS-8-51-3, APS-8-50-4, APS-8-51-4, APS-8-52-3, APS-8-50-3, APS-7-52-2, APS-8-52-4, APS-7-52-1, and APS-8-100-4.

[3] = system: HCC tumor organoids, BC (B-Catenin); test: 3D HCC tumor organoid viability, BC model; type: cell-based; conditions: 5.0 μM, viability three days post drug administration
Method: as §1

[4] = system: panel of 468 purified human kinases; test: In vitro kinase percent inhibition, panel of 468 kinases (DiscoverX); type: binding; conditions: 1 μM; for binding to wild-type RET and RET^M918T, in words: kinase panel
Method: Compounds were assayed against a panel of 468 purified human kinases (DiscoverX) to measure percentage inhibition values and derive kinome profiles (FIGS. 3B-3C). All compounds were screened at 1 μM, using two experimental replicates to determine percent inhibition values. Detailed procedures for kinase reactions and assay formats are described at http://www.discoverx.com. Raw data sets for individual compounds were filtered based on the variance of experimental replicates (cutoff=average variance+standard deviation).

SMILES: CC(C)n1nc(-c2ccc(NC(=O)Nc3cc(C(F)(F)F)ccc3F)cc2)c2c(N)ncnc21 [AD80, 1-(4-(4-amino-1-isopropyl-1H-pyrazolo[3,4-d]pyrimidin-3-yl)phenyl)-3-(2-fluoro-5-(trifluoromethyl)phenyl)urea, reference compound]
ranking by inhibition of cell proliferation, AKSP model (AKSP CRC tumoroid line): top ten | cellular IC50 wild-type RET versus M918T mutant, in words (RET (WT and M918T)): slightly lower IC50 value for wild-type RET over mutant | rescue (percent viability of adult flies, adults/pupae×100) (ptc>dRet^M955T flies): 80%

Kd [1]: 100 nM
SMILES: CNC(=O)c1cc(Oc2ccc(NC(=O)Nc3ccc(C(F)(F)C(F)(F)C(F)(F)C(F)(F)F)cc3)c(F)c2)ccn1 [APS-8-52-2]

SMILES: CC(C)n1cc(-c2ccc(NC(=O)Nc3ccc(C(F)(F)C(F)(F)F)cc3)cc2)c2c(N)ncnc21 [APS-8-100-4, 1-(4-(4-Amino-7-isopropyl-7H-pyrrolo[2,3-d]pyrimidin-5-yl)phenyl)-3-(4-(perfluoroethyl)phenyl)urea]
ranking by inhibition of cell proliferation, SR model [2]: top ten | ranking by inhibition of cell proliferation, BC model [3]: top ten | cellular IC50 against RET, ranking in words (RET (WT and M918T)): lowest IC50 values among the para-substituted compounds tested | rescue activity in the fly model, in words (ptc>dRet^M955T flies): exceptional in vivo activity | rescue (percent viability of adult flies, adults/pupae×100) (ptc>dRet^M955T flies): 100%

SMILES: CC(C)n1cc(-c2ccc(NC(=O)Nc3cccc(C(F)(F)C(F)(F)F)c3)cc2)c2c(N)ncnc21 [APS-9-3, 1-(4-(4-Amino-7-isopropyl-7H-pyrrolo[2,3-d]pyrimidin-5-yl)phenyl)-3-(3-(perfluoroethyl)phenyl)urea 2,2,2-trifluoroacetate]
ranking by inhibition of cell proliferation, AKSP model (AKSP CRC tumoroid line): top ten

SMILES: CNC(=O)c1cc(Oc2ccc(NC(=O)Nc3ccc(C(F)(C(F)(F)F)C(F)(F)C(F)(F)F)cc3)c(F)c2)ccn1 (stereo not drawn) [APS-8-82-1]
Kd [1]: 110 nM | rescue (percent viability of adult flies, adults/pupae×100) (ptc>dRet^M955T flies): 85% | binding to wild-type RET and RET^M918T, in words [4]: selective for mutant RET^M918T | binding to wild-type RET and RET^M918T, in words ([4]; listed as 8-82-1): selectivity for the M918T mutant over wild-type | binding profile / selectivity across the kinome, in words ([4]; panel of 468 kinases): highly selective across the kinome | number of kinases bound with >80% efficacy ([4]; panel of 468 kinases): 7

SMILES: CC(C)n1cc(-c2ccc(NC(=O)Nc3cccc(C(F)(C(F)(F)F)C(F)(F)C(F)(F)F)c3)cc2)c2c(N)ncnc21 (stereo not drawn) [APS-8-56-4, 1-(4-(4-Amino-7-isopropyl-7H-pyrrolo[2,3-d]pyrimidin-5-yl)phenyl)-3-(3-(perfluorobutan-2-yl)phenyl)urea]
ranking by inhibition of cell proliferation, AKSP model (AKSP CRC tumoroid line): top ten

cellular IC50 against RET, ranking in words (RET (WT and M918T)): highest IC50 values
SMILES: CC(C)n1nc(-c2ccc(NC(=O)Nc3cc(C(F)(C(F)(F)F)C(F)(F)C(F)(F)F)ccc3F)cc2)c2c(N)ncnc21 (stereo not drawn) [APS-8-35-3, 1-(4-(4-Amino-1-isopropyl-1H-pyrazolo[3,4-d]pyrimidin-3-yl)phenyl)-3-(2-fluoro-5-(perfluorobutan-2-yl)phenyl)urea]
ranking by inhibition of cell proliferation, AKSP model (AKSP CRC tumoroid line): top ten

SMILES: CC(C)n1cc(-c2ccc(NC(=O)Nc3ccc(C(F)(F)C(F)(F)C(F)(F)F)cc3)cc2)c2c(N)ncnc21.O=C(O)C(F)(F)F [APS-8-51-4, 1-(4-(4-Amino-7-isopropyl-7H-pyrrolo[2,3-d]pyrimidin-5-yl)phenyl)-3-(4-(perfluoropropyl)phenyl)urea 2,2,2-trifluoroacetate]
ranking by inhibition of cell proliferation, SR model [2]: top ten | ranking by inhibition of cell proliferation, BC model [3]: top ten | rescue activity in the fly model, in words (ptc>dRet^M955T flies): exceptional in vivo activity | rescue (percent viability of adult flies, adults/pupae×100) (ptc>dRet^M955T flies): 100%

SMILES: CC(C)n1cc(-c2ccc(NC(=O)Nc3ccc(C(F)(F)F)cc3)cc2)c2c(N)ncnc21 [APS-8-85-2, 1-(4-(4-Amino-7-isopropyl-7H-pyrrolo[2,3-d]pyrimidin-5-yl)phenyl)-3-(4-(trifluoromethyl)phenyl)urea]
ranking by inhibition of cell proliferation, AKSP model (AKSP CRC tumoroid line): top ten

SMILES: CC(C)n1cc(-c2ccc(NC(=O)Nc3cc(C(F)(C(F)(F)F)C(F)(F)C(F)(F)F)ccc3F)cc2)c2c(N)ncnc21 (stereo not drawn) [APS-8-35-4, 1-(4-(4-Amino-7-isopropyl-7H-pyrrolo[2,3-d]pyrimidin-5-yl)phenyl)-3-(2-fluoro-5-(perfluorobutan-2-yl)phenyl)urea 2,2,2-trifluoroacetate]
ranking by inhibition of cell proliferation, AKSP model (AKSP CRC tumoroid line): top ten

SMILES: CC(C)n1cc(-c2ccc(NC(=O)Nc3cccc(C(F)(F)F)c3)cc2)c2c(N)ncnc21 [APS-9-2, 1-(4-(4-Amino-7-isopropyl-7H-pyrrolo[2,3-d]pyrimidin-5-yl)phenyl)-3-(3-(trifluoromethyl)phenyl)urea]
ranking by inhibition of cell proliferation, AKSP model (AKSP CRC tumoroid line): top ten

SMILES: CC(C)n1cc(-c2ccc(NC(=O)Nc3cc(C(F)(F)F)ccc3F)cc2)c2c(N)ncnc21 [APS-6-87, 1-(4-(4-Amino-7-isopropyl-7H-pyrrolo[2,3-d]pyrimidin-5-yl)phenyl)-3-(2-fluoro-5-(trifluoromethyl)phenyl)urea]
ranking by inhibition of cell proliferation, AKSP model (AKSP CRC tumoroid line): top ten

SMILES: CC(C)n1nc(-c2ccc(NC(=O)Nc3ccc(C(F)(F)C(F)(F)C(F)(F)F)cc3)cc2)c2c(N)ncnc21 [APS-8-51-3, 1-(4-(4-Amino-1-isopropyl-1H-pyrazolo[3,4-d]pyrimidin-3-yl)phenyl)-3-(4-(perfluoropropyl)phenyl)urea]
ranking by inhibition of cell proliferation, SR model [2]: top ten | ranking by inhibition of cell proliferation, AKSP model (AKSP CRC tumoroid line): top ten | ranking by inhibition of cell proliferation, BC model [3]: top ten

From US20240287081A1, “PERFLUOROALKANE SUBSTITUTED PYRAZOLO[3,4-D]PYRIMIDIN AND PYRROLO[2,3-D]PYRIMIDIN COMPOUNDS AND USES THEREOF” (ICAHN SCHOOL OF MEDICINE AT MOUNT SINAI, priority 2021, published 2024)
